Laboratory results reported in PubChem BioAssay (NCI).
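GI50 marks 50% less growth. TGI is the concentration that stops growth completely.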

What was measured:
Assay in all cases: NCI tumour cell line growth inhibition, 384-well format
NCI-H522 lung = test system: NCI-H522 lung
SNB-19 CNS = test system: SNB-19 CNS
NCI-H23 lung = test system: NCI-H23 lung
A549 NSCLC = test system: A549 NSCLC
UACC-62 melanoma = test system: UACC-62 melanoma
OVCAR-5 ovarian = test system: OVCAR-5 ovarian
UACC-257 melanoma = test system: UACC-257 melanoma
KM12 colon = test system: KM12 colon
BT-549 breast = test system: BT-549 breast
CAKI-1 renal = test system: CAKI-1 renal
OVCAR-3 ovarian = test system: OVCAR-3 ovarian
UO-31 renal = test system: UO-31 renal
NCI/ADR-RES ovarian = test system: NCI/ADR-RES ovarian
SR leukemia = test system: SR leukemia
HCT-15 colon = test system: HCT-15 colon
NCI-H460 NSCLC = test system: NCI-H460 NSCLC
CCRF-CEM leukemia = test system: CCRF-CEM leukemia
LOX IMVI melanoma = test system: LOX IMVI melanoma
TK-10 renal = test system: TK-10 renal
SN12C renal = test system: SN12C renal
U251 glioblastoma = test system: U251 glioblastoma
SF-268 CNS = test system: SF-268 CNS
RXF 393 renal = test system: RXF 393 renal
HS 578T breast = test system: HS 578T breast
M14 melanoma = test system: M14 melanoma
NCI-H226 lung = test system: NCI-H226 lung
MDA-MB-468 breast = test system: MDA-MB-468 breast
EKVX NSCLC = test system: EKVX NSCLC
MCF7 breast = test system: MCF7 breast
HL-60(TB) leukemia = test system: HL-60(TB) leukemia
NCI-H322M lung = test system: NCI-H322M lung
RPMI-8226 leukemia = test system: RPMI-8226 leukemia
MDA-MB-435 melanoma = test system: MDA-MB-435 melanoma
COLO 205 colon = test system: COLO 205 colon
A498 renal = test system: A498 renal
786-0 renal = test system: 786-0 renal
HT29 colon = test system: HT29 colon
ACHN renal = test system: ACHN renal
SK-MEL-2 melanoma = test system: SK-MEL-2 melanoma
MOLT-4 leukemia = test system: MOLT-4 leukemia
IGROV1 ovarian = test system: IGROV1 ovarian
HCT-116 colon = test system: HCT-116 colon
DU-145 prostate = test system: DU-145 prostate
OVCAR-8 ovarian = test system: OVCAR-8 ovarian
T-47D breast = test system: T-47D breast
SK-MEL-5 melanoma = test system: SK-MEL-5 melanoma
PC-3 prostate = test system: PC-3 prostate

## CC(C)[C@](O)(c1ccc2cc(OC(F)F)c(OC(F)F)cc2c1)c1cn[nH]n1
NCI-H522 lung
  GI50: 13.6 µM
  TGI: 27.7 µM
SNB-19 CNS
  GI50: 17.8 µM
  TGI: 32.2 µM
NCI-H23 lung
  GI50: 14.8 µM
  TGI: 29.6 µM
A549 NSCLC
  GI50: 17.4 µM
  TGI: 44.8 µM
UACC-62 melanoma
  GI50: 16.4 µM
  TGI: 30 µM
OVCAR-5 ovarian
  GI50: 17.3 µM
  TGI: 38.2 µM
UACC-257 melanoma
  GI50: 16.5 µM
  TGI: 30.6 µM
KM12 colon
  GI50: 15 µM
  TGI: 28.6 µM
BT-549 breast
  GI50: 14.6 µM
  TGI: 27.9 µM
CAKI-1 renal
  GI50: 15.7 µM
  TGI: 32.3 µM
OVCAR-3 ovarian
  GI50: 13 µM
  TGI: 25.8 µM
UO-31 renal
  GI50: 16.6 µM
  TGI: 30.4 µM
NCI/ADR-RES ovarian
  GI50: 18.7 µM
  TGI: 33.8 µM
SR leukemia
  GI50: 3.91 µM
  TGI: 13.6 µM
HCT-15 colon
  GI50: 14.4 µM
  TGI: 27.8 µM
NCI-H460 NSCLC
  GI50: 16.6 µM
  TGI: 30.5 µM
CCRF-CEM leukemia
  GI50: 12.3 µM
  TGI: 24.8 µM
LOX IMVI melanoma
  GI50: 17.3 µM
  TGI: 31.2 µM
TK-10 renal
  GI50: 14.7 µM
  TGI: 30.2 µM
SN12C renal
  GI50: 14.9 µM
  TGI: 28.2 µM
U251 glioblastoma
  GI50: 16.7 µM
  TGI: 30.5 µM
SF-268 CNS
  GI50: 16.5 µM
  TGI: 30.6 µM
RXF 393 renal
  GI50: 13.8 µM
  TGI: 28.3 µM
HS 578T breast
  GI50: 12.3 µM
  TGI: 24.8 µM
M14 melanoma
  GI50: 17.6 µM
  TGI: 31.6 µM
NCI-H226 lung
  GI50: 21 µM
  TGI: 36 µM
MDA-MB-468 breast
  GI50: 10.3 µM
  TGI: 27.7 µM
EKVX NSCLC
  GI50: 13.1 µM
  TGI: 28.8 µM
MCF7 breast
  GI50: 13 µM
  TGI: 27.5 µM
HL-60(TB) leukemia
  GI50: 6.11 µM
  TGI: 16.1 µM
NCI-H322M lung
  GI50: 17.3 µM
  TGI: 33 µM
RPMI-8226 leukemia
  GI50: 9.27 µM
  TGI: 22.5 µM
MDA-MB-435 melanoma
  GI50: 16.9 µM
  TGI: 31.3 µM
COLO 205 colon
  GI50: 20.3 µM
  TGI: 39.9 µM
A498 renal
  GI50: 17.5 µM
  TGI: 31.8 µM
786-0 renal
  GI50: 16.2 µM
  TGI: 30.3 µM
HT29 colon
  GI50: 16 µM
  TGI: 29.8 µM
ACHN renal
  GI50: 25.5 µM
  TGI: 59.8 µM
SK-MEL-2 melanoma
  GI50: 19.4 µM
  TGI: 33.5 µM
MOLT-4 leukemia
  GI50: 11.3 µM
  TGI: 23.5 µM
IGROV1 ovarian
  GI50: 17.6 µM
  TGI: 37 µM
HCT-116 colon
  GI50: 13.6 µM
  TGI: 26.9 µM
DU-145 prostate
  GI50: 16.5 µM
  TGI: 32.8 µM
OVCAR-8 ovarian
  GI50: 16.3 µM
  TGI: 30 µM
T-47D breast
  GI50: 10.9 µM
  TGI: 38.2 µM
SK-MEL-5 melanoma
  GI50: 13.1 µM
  TGI: 25.9 µM
PC-3 prostate
  GI50: 15.9 µM
  TGI: 30.3 µM
